Read-outs that look alike come from different tables or passages of the source.
Columns and labels:
human topoisomerase II = target: T1, human topoisomerase II (Homo sapiens, UniProt P11388); assay: Mammalian Topoisomerase II Inhibition Assay (stabilization of DNA-topo II covalent complex); assay type: biochemical
T1 construct: Topo II was purified from late log phase suspension cultures of HeLa WIS; endogenous in cells; host or cells: HeLa WIS (late log phase suspension cultures); enzyme purified from the cells
T1 sequence (P11388 whole entry): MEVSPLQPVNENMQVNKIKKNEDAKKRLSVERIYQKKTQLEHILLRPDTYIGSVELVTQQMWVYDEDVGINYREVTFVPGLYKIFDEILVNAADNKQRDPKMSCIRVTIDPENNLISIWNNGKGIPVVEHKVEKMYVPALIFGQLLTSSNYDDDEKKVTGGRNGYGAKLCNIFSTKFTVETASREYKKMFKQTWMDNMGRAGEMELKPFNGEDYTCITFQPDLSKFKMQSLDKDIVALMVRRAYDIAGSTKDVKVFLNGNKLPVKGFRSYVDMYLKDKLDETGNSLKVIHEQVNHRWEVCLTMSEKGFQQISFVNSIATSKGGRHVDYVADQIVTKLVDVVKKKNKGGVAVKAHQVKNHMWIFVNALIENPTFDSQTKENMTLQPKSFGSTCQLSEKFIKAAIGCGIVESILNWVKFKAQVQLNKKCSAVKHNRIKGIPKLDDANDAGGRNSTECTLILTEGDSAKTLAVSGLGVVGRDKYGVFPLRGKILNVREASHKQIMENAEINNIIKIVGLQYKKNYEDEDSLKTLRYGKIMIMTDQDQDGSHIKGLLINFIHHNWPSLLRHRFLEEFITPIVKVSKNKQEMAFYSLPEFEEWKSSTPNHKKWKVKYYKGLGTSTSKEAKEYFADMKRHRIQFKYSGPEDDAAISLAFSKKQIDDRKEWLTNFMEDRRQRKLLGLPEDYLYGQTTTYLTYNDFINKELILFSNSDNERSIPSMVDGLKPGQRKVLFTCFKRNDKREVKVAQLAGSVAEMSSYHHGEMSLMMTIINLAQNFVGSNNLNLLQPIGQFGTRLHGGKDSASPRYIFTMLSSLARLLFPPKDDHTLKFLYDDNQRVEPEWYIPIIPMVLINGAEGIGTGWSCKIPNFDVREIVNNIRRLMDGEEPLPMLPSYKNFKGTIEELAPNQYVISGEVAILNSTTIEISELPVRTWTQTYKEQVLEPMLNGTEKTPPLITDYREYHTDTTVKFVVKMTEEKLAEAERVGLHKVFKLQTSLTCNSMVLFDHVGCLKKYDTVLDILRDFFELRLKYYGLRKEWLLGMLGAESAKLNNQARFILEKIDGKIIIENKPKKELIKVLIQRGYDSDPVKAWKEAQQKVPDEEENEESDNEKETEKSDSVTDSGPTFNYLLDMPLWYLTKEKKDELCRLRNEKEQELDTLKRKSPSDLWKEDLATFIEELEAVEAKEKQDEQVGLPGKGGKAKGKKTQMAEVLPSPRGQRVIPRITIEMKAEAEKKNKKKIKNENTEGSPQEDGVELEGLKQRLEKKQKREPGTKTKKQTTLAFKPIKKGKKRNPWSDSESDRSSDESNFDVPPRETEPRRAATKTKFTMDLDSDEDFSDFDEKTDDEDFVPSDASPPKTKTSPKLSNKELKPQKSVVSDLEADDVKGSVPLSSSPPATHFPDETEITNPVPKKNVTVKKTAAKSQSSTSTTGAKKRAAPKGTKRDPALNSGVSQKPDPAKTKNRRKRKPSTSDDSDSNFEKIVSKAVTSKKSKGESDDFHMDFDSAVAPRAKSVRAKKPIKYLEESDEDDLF
Excerpt: Mammalian Topoisomerase II Inhibition Assay Procedure
The inhibition of human topoisomerase II (hereafter topo II) was quantitated by a procedure adapted from that described by Trask et al., EMBO J., 3, 671-676 (1984). The assay quantitates the amount of topo II covalently complexed by DNA at equilibrium during a topo II reaction. This assay determines the potential of a compound to stabilize this complex, which potential is closely related to the cytotoxicity of several clinically useful antineoplastic agents.
Topo II was purified from late log phase suspension cultures of HeLa WIS by an adaptation of the method described by Per et al., Mol. Pharmacol., 32, 17-25 (1987).
Assays (in duplicate) were assembled at 4° C. Assay mix (25 μl ) was distributed in Beckman (No. 265270) 1.5 mL microtitre tubes followed by the addition of 5 μl test to yield the final concentrations of assay components:
4 ng 3' end labeled (^32 p) pBR322 DNA (10^7 DPM/μg)
The assay mix including the test compound was incubated for 20 minutes at 37° C. The reaction was terminated at 37° C. by the addition of 3 μl 10% SDS followed by the addition of 266 μl 10 mM Tris-Cl pH 7.5, 20 μg/ml calf thymus DNA, 1% SDS.
A SDS/protein precipitate was formed by the addition of 28 μl 2.5M KCl followed by chilling on ice for a minimum of 10 minutes. The precipitate was collected and washed with a Brandell cell harvester on a GFB glass fiber filter membrane as follows. The contents of the assay tube were drawn up into the harvester. The tube was then rinsed 7× with 10 mM Tris-Cl pH 7.5, 1 mM EDTA and 100 mM KCl. The precipitate was washed with 1 L of a solution of 10 mM Tris-Cl pH 7.5, 1 mMEDTA, 100 mM KCl followed by 1 L of 95% ethyl alcohol and finally 0.5 L 70% of ethyl alcohol (per 48 samples in each case). After drying, CPM was determined by liquid scintillation counting with 5 ml Biofluor (NEN Research Products) or Readisafe (Beckman Instruments Inc.) cocktail.
Preparation of test compound--A stock solution (6 mg/ml) of test compound was prepared either in 0.1N sodium hydroxide or 0.2N hydrogen chloride. This solution then was diluted 1/5 into water and serially thereafter in either 0.02N sodium hydroxide or 0.04N hydrogen chloride, respectively. The stock solution and serial dilution of the test compound was stored at -20° C. prior to testing.
Screening of test compound--As an initial screen, the test compound was tested at a final concentration of 2, 20 and 200 μg/ml. The compound was then retested at a range of concentrations (usually 2-3× steps) bridging their approximate EC50 's, as estimated by the prescreen.
Controls--A solvent control which indicates the base level of topo II-DNA complexes formed in the absence of the test compound was included in each test. A control, in which topo II was omitted, was included for each test compound at the highest drug concentration tested.
Reference Agent--A dose response curve with mAMSA at 0.01, 0.08, 0.16, 0.32, 1.0 and 10 μg/ml was included in each test.
Data reduction--The EC50 (effective concentration at which 50% of the maximal DNA-topo II complex is formed) of a test compound is defined to be the concentration with activity equal to the EC50 of the reference agent, mAMSA. The maximal DNA-topo II complex formed is taken as that equal to that formed at the nearly saturating dose of mAMSA (10 μg/ml).
The results obtained for representative compounds of the invention in the human topoisomerase II assay procedure expressed as EC50 s (μM) are presented in Table 3.

[1] = system: pancreatic ductal adenocarcinoma No. 03 (Panc 03); assay: In vivo antitumor assay, Panc03; set-up: species or system murine tumor in mice
Excerpt: (§1) In vivo Antitumor Assay Procedure
(§2) Mice: Inbred: C3H/He and NCR-nu; and Hybrids: B6D2F1 (C57BL/6 females×DBA/2 males, CD2F1 (Balb/c females×DBS/2 males) and B6C3fl (C57BL/6×C3H) were bred at Wayne State University from strains obtained from the Frederick Cancer Research Facility, Frederick, Md. or purchased from commercial suppliers.
Tumors: Murine Tumor: P388 leukemia and pancreatic ductal adenocarcinoma No. 03 (Panc 03) were used for in vivo testing. Human tumor: A single human tumor, mammary carcinoma MX-1 (MX1) was used for in vivo testing. All tumors are in the Developmental Therapeutics Program frozen tumor respository, maintained by the Biological Testing Branch, Frederick, Md. Each has a detailed description, code identification number, and list of references at the National Tumor Repository. Murine tumors were maintained in the mouse strain of origin and were transplanted in the appropriate F1 hydrid (or the strain of orgin) for therapy trials. Human mammary carcinoma MX-1 (MX1) was maintained as a subcutaneous implant in either athymic Swiss (Cr: NIH (S) - nu) or athymic random bred (NCR-nu) mice and transplanted in NCR-nu for therapy trials.
Chemotherapy: For pancreatic ductal adenocarcinoma No. 3, bilateral tumor implants were used to help ensure a more uniform tumor burden per mouse. The animals necessary to begin an experiment were pooled, implanted bilaterally s.c. on day zero with 30-60-mg tumor fragments using a 12-gauge trocar, and again pooled before randomization to the various treatment and control groups. Chemotherapy was started within three days after tumor implantation while the number of cells per mouse was relatively small (1×10^7 -1×10^8 cells).
End Points for Assessing Antitumor Activity
(§3) Quantitative end points used to assess antitumor activity were percent Increased Life Span (% ILS), and Tumor Growth Inhibition (T/C).
(§4) Endpoints were calculated as follows: […]
Tumors were measured with a caliper once or twice weekly (as needed) until either tumors exceeded 1600 mg or cure was assured. Tumor weights were estimated from two dimensional measurements: Tumor Weight (mg)+(a×b^2)/2, where a and b are the tumor length and width (mm) respectively. Measurements were carried out simultaneously in both treatment and control groups. When the control group tumors reached approximately 750-1500 mg in size (median of group), the median tumor weight of each group was determined (including zeros). The T/C value in percent is an indication of antitumor effectiveness. The % T/C was calculated from the following formula for solid murine tumor models: [formula] where T and C are median tumor weights of the treatment and control groups, respectively. A T/C equal to or less than 42% is considered significant antitumor activity. A T/C value<10% is indicative of a high degree of antitumor activity and is the level used by National Cancer Institute to justify further development if other requirements are met (termed DN-2 level activity). By convention the T/C value for the mammary carcinoma MX-1 model is calculated by the parameter of change in tumor weight. The % T/C was calculated from the following formula for the MX-1 model; [formula] where ΔT and ΔC are the change in mean tumor weight of the test and control groups, respectively, and T (initial) is the initial mean tumor weight of the test group. […] A % T/C≤10 is considered significant activity.

[2] = system: mammary carcinoma MX-1 (MX1); assay: In vivo antitumor assay, mammary carcinoma MX-1; set-up: species or system human tumor in NCR-nu mice; conditions: MX-1, sc tumor/ip drug
Excerpt: as §1, §2
Tumors: Murine Tumor: P388 leukemia and pancreatic ductal adenocarcinoma No. 03 (Panc 03) were used for in vivo testing. Human tumor: A single human tumor, mammary carcinoma MX-1 (MX1) was used for in vivo testing. All tumors are in the Developmental Therapeutics Program frozen tumor respository, maintained by the Biological Testing Branch, Frederick, Md. […]
as §3, §4
Tumors were measured with a caliper once or twice weekly (as needed) until either tumors exceeded 1600 mg or cure was assured. […] When the control group tumors reached approximately 750-1500 mg in size (median of group), the median tumor weight of each group was determined (including zeros). […] The % T/C was calculated from the following formula for solid murine tumor models: [formula] where T and C are median tumor weights of the treatment and control groups, respectively. […]

P388 leukemia = assay: In vivo antitumor assay, P388 leukemia; set-up: species or system murine tumor in mice
Excerpt: as §1, §2
Tumors: Murine Tumor: P388 leukemia and pancreatic ductal adenocarcinoma No. 03 (Panc 03) were used for in vivo testing. Human tumor: A single human tumor, mammary carcinoma MX-1 (MX1) was used for in vivo testing. All tumors are in the Developmental Therapeutics Program frozen tumor respository, maintained by the Biological Testing Branch, Frederick, Md. Each has a detailed description, code identification number, and list of references at the National Tumor Repository. Murine tumors were maintained in the mouse strain of origin and were transplanted in the appropriate F1 hydrid (or the strain of orgin) for therapy trials. Human mammary carcinoma MX-1 (MX1) was maintained as a subcutaneous implant in either athymic Swiss (Cr: NIH (S) - nu) or athymic random bred (NCR-nu) mice and transplanted in NCR-nu for therapy trials. […]
as §3, §4

[3] = footnote *: bell shaped dose response, read-out: Topo II EC50 (bell shaped dose response)
[4] = concentration with activity equal to EC50 of mAMSA, 20 min, 37° C, read-out: Topo II EC50

SMILES | EC50 (human topoisomerase II; [4]) [µM] | other results
CON=c1ccn(C2CC2)c2c(F)c(-c3cc(C)nc(C)c3)c(F)cc12 [Example 17] | – | EC50 (human topoisomerase II; [3]): 2.6 µM
Cc1cc(-c2c(F)cc3c(c2F)N(C2CC2)C=CC3=C(C#N)C#N)cc(C)n1 [Example 7] | – | EC50 (human topoisomerase II; [3]): 6.3 µM
Cc1cc(-c2c(F)cc3c(=NSc4ccccn4)ccn(C4CC4)c3c2F)cc(C)n1 [Example 19] | 3.8 | –
Cc1cc(-c2c(F)cc3c(=NNc4c5ccccc5nc5ccccc45)ccn(C4CC4)c3c2F)cc(C)n1 [Example 14] | 28 | –
Cc1ccc(S(=O)(=O)N=c2ccn(C3CC3)c3c(F)c(-c4cc(C)nc(C)c4)c(F)cc23)cc1 [Example 3] | – | EC50 (human topoisomerase II; [3]): 45 µM
Cc1cc(-c2c(F)cc3c(=NN4C(=O)c5ccccc5C4=O)ccn(C4CC4)c3c2F)cc(C)n1 [Example 6] | 16 | –
Cc1cc(-c2c(F)cc3c(=NSc4ccc(Cl)cc4)ccn(C4CC4)c3c2F)cc(C)n1 [Example 18] | 9.4 | –
Cc1cc(-c2c(F)cc3c(=S)ccn(C4CC4)c3c2F)cc(C)n1 [Int B] | – | EC50 (human topoisomerase II; footnote E: endpoint of assay extrapolated, read-out: Topo II EC50 (endpoint of assay extrapolated)): 76 µM
Cc1cc(-c2c(F)cc3c(=NNc4ccccn4)ccn(C4CC4)c3c2F)cc(C)n1 [Example 2] | 0.98 | In vivo antitumor activity, MX-1 [2]: Inactive; In vivo antitumor activity, P388 (P388 leukemia; P388, ip tumor/ip drug): Inactive; In vivo antitumor activity, P388 (P388 leukemia; P388, ip tumor/iv drug): Inactive; % T/C (Tumor Growth Inhibition), Panc03 ([1]; Panc03, sc tumor/iv drug, T/C ≤42% considered significant): 37%
Cc1cc(-c2c(F)cc3c(c2F)N(C2CC2)C=CC3=CC#N)cc(C)n1 [Example 8b] | 4 | –
Cc1cc(-c2c(F)cc3c(=NNc4cnc5ccccc5c4)ccn(C4CC4)c3c2F)cc(C)n1 [Example 16] | 92 | –
Cc1cc(-c2c(F)cc3c(=Nc4ccccc4O)ccn(C4CC4)c3c2F)cc(C)n1 [Example 24] | 1.6 | –
CSc1cc[n+](C2CC2)c2c(F)c(-c3cc(C)nc(C)c3)c(F)cc12 [Int C] | 24 | –
CCOC(=O)C(C#N)=C1C=CN(C2CC2)c2c1cc(F)c(-c1cc(C)nc(C)c1)c2F [Example 8a] | – | EC50 (human topoisomerase II; [3]): 4.8 µM

Now from value to compound, other results behind:

EC50 (human topoisomerase II; [4]) [µM] | SMILES | other results
20 | CC(=O)NN=c1ccn(C2CC2)c2c(F)c(-c3cc(C)nc(C)c3)c(F)cc12 [Example 5] | –
2.4 | Cc1cc(-c2c(F)cc3c(=NC4CC4)ccn(C4CC4)c3c2F)cc(C)n1 [Example 12] | In vivo antitumor activity, Panc03 ([1]; Panc03, sc tumor/iv drug): Inactive
14 | Cc1cc(-c2c(F)cc3c(=NCCN(C)C)ccn(C4CC4)c3c2F)cc(C)n1 [Example 20] | –
1.9 | Cc1cc(-c2c(F)cc3c(=Nc4ccccc4)ccn(C4CC4)c3c2F)cc(C)n1 [Example 22] | –
12 | Cc1cc(-c2c(F)cc3c(=N)ccn(C4CC4)c3c2F)cc(C)n1 [Example 4] | –
3.2 | Cc1cc(-c2c(F)cc3c(=NNCCO)ccn(C4CC4)c3c2F)cc(C)n1 [Example 15] | –
5.5 | Cc1cc(-c2c(F)cc3c(=NCCCN(C)C)ccn(C4CC4)c3c2F)cc(C)n1 [Example 21] | –
1.4 | Cc1cc(-c2c(F)cc3c(=NO)ccn(C4CC4)c3c2F)cc(C)n1 [Example 10] | In vivo antitumor activity, Panc03 ([1]; Panc03, sc tumor/iv drug): Inactive
3.6 | Cc1cc(-c2c(F)cc3c(=Nc4ccccn4)ccn(C4CC4)c3c2F)cc(C)n1 [Example 23] | –
17 | Cc1cc(-c2c(F)cc3c(=O)ccn(C4CC4)c3c2F)cc(C)n1 [Int A] | In vivo antitumor activity, Panc03 ([1]; Panc03, route not given): Inactive
1.7 | Cc1cc(-c2c(F)cc3c(=NN)ccn(C4CC4)c3c2F)cc(C)n1 [Example 1] | In vivo antitumor activity, Panc03 ([1]; Panc03, sc tumor/iv drug): Inactive
2.3 | Cc1cc(-c2c(F)cc3c(=NN(C)C)ccn(C4CC4)c3c2F)cc(C)n1 [Example 11] | –
3.1 | Cc1cc(-c2c(F)cc3c(=NNC(N)=O)ccn(C4CC4)c3c2F)cc(C)n1 [Example 13] | In vivo antitumor activity, Panc03 ([1]; Panc03, sc tumor/iv drug): Inactive
7.6 | Cc1cc(-c2c(F)cc3c(=Nc4ccc(N)cc4)ccn(C4CC4)c3c2F)cc(C)n1 [Example 25] | –
1.9 | CNN=c1ccn(C2CC2)c2c(F)c(-c3cc(C)nc(C)c3)c(F)cc12 [Example 9] | –
